These results are taken from US5958770A, “Glycoalkaloids” (priority 1990, dated 1999).

In one series the test system is cancer. The conditions noted are these: rats; cited from earlier work.
The next series concerns tumour. Conditions: cited from earlier work.
The nature of series [1]: Inhibition of tritiated thymidine uptake, unstimulated lymphocytes. Conditions: human, unstimulated lymphocytes.
Procedure: (§4) This was cultured for 48 hours and pulsed with tritiated thymidine for a further 24 hours. In the inhibition studies, the cell concentration was 8×10^5 /ml.
(§5) All cells were harvested by vacuum filtration by washing in 250 μl of each of phosphate buffered saline, 5% trichloroacetic acid, 1.0M NaCl and 95% ethanol and subjected to β-scintillatian counting. Similarly, peripheral human blood lymphocytes were isolated and cultured 2×10^5 lymphocytes in CO2 1640TCM 10% HIFCS. Lymphocytes were stimulated with 20 μg/ml PHA, Con A or PWM, and cultured for 48 hrs followed by a 24 hr pulse. […] Cell concentrations were 8×10^4 /well total volume 250 μl. The dpm of the experimental replicates were expressed as a percentage of the mean value of the controls, and the mean value of the experimental replicates calculated.
Series [2] can be described thus: Inhibition of tritiated thymidine uptake, Con A stimulated lymphocytes. The conditions noted are these: human, con a stimulated lymphocytes.
Procedure: as §4, §5
Series [3] has as its system ovarian cancer cells. As to the kind of experiment: Inhibition of tritiated thymidine uptake, ovarian cancer cells. The method, then:
(§1) The inhibition of cell replication by steroid alkaloids is determined by the inhibition of the incorporation of ^3 H thymidine into DNA. Using this technique, it should be possible to monitor any preferential inhibition of uptake of ^3 H thymidine by cancer cells.
(§2) Cells were maintained as monolayers in RPM1-1640 tissue culture media (Grant Island Biological Co) buffered with N-2-hydroxy-ethylpiperazine-N-2-ethanesulphonic acid pH 7.5 and supplemented with 10% heat inactivated fetal calf serum (FCS): (i) a human ovarian cancer cell line (C180-135), (ii) HeLa cells, (iii) human fibroblasts, and (iv) as a cell suspension of lymphoblastoid cells (EBV transformed lymphocytes). Monolayers were trypsinized to form a cell suspension. […] Cell concentration was adjusted to 2×10^5 cells/ml, and 2×10^4 cells were added in replicates of 10 to the wells (1×10^5 /ml well) of HA microtitre plates (Millipore Corp., USA). The cells were preincubated at 37.5° C. for 7 hours prior to the addition of 50 μl of the cytotoxic drug followed by the addition of 50 μl 5 uCi/ml of ^3 H thymidine, in the same tissue culture media 21 hours later. Incubation was continued for a total of 24 hours, which includes the pre-incubation time.
(§3) Appropriate DMSO cytotoxicity studies were also conducted. Solasodine glycosides were supplied as a mixture (BEC), and as separate components, solamargine, solasonine, a mixture of di- and mono-glycosides and the aglycone solasodine. All cytotoxic drugs were further diluted with HIFCS/TCM before testing. 5×10^4 ovarian cancer cells (200 μl/chamber of a chamber of microscope slide (Lab Tek Miles Scientific) were used. Controls received 50 μl HIFCS/TCM and experimental chambers 50 μl of solasodine glycosides (BEC) 1.5-3.8 μM/L after 7 hrs preincubation, and incubated for a further 3 hrs. Similarly, the cells were treated with the aglycone solasodine 19.4-96.8 μM/L. The cells were fixed and examined by the Papanicolaou method.

Series [4] can be described thus: Inhibition of tritiated thymidine uptake, PWM stimulated lymphocytes. The conditions noted are these: human, pwm stimulated lymphocytes.
Procedure: as §4, §5
In series [5] the test system is ovarian cancer cells, HeLa cells, lymphoblastoid cells, fibroblasts. As to the kind of experiment: Cytotoxicity / inhibition of tritiated thymidine uptake, cell types taken together. The method, then: as §1, §2, §3
The subject of another series is HeLa cells. As to the kind of experiment: cells. The method, then:
as §1, §2, §3

The subject of series [6] is lymphoblastoid cells (EBV transformed lymphocytes). As to the kind of experiment: cells. The method, then: as §1, §2, §3
A further series has as its system human fibroblasts. As to the kind of experiment: cells. The conditions noted are these: FB; NSE = no significant effect. The method, then: as §1, §2, §3
The nature of series [7]: Inhibition of tritiated thymidine uptake, PHA stimulated lymphocytes. Conditions: human, pha stimulated lymphocytes.
Procedure: as §4, §5
A further series concerns unstimulated lymphocytes. In words: Inhibition of tritiated thymidine uptake, unstimulated lymphocytes. Conditions: much higher concentrations; unstimulated lymphocytes (FIG. 8e).
Series [8] deals with unstimulated and stimulated lymphocytes. The conditions noted are these: equivalent concentrations of DMG.
Procedure: as §4, §5
For another series, the system named is Sarcoma 180. As to the kind of experiment: Survival of mice with Sarcoma 180, with and without rhamnose. The format is in vivo. The conditions noted are these: aglycone; 100 mg/kg. How it is done:
Herston White mice with a body weight of approximately 30 g and aged 8-10 weeks served as recipients. Twelve mice were randomly chosen for each experimental group.
Sarcoma 180 tumour cells (5×10^5) were inoculated intraperitoneally into mice. This caused a mortality of 100% with a median survival time of 20 days in the control groups. A standard mixture of glycoalkaloids (BEC) was dissolved in dimethylsulfoxide at a concentration of 0.5 g BEC/100 ml dimethylsulfoxide. Similar solutions were made up but also contained 0.3125, 0.625 and 0.9375 g of rhamnose. These solutions were administered intraperitoneally in concentrations of 8 mg/kg animal weight for BEC (FIG. 9) without (-.tangle-solidup.-), and with 5 mg (-.quadrature.-), 10 mg (-.cndot.-) and 15 mg (-Δ-) rhamnose/kg animal weight. The first dose was given 0.5 hours after administration of the Sarcoma 180 tumour cells. The remaining three doses were given at daily intervals. Dimethylsulfoxide and rhamnose had no effect on Sarcoma 180 activity in the absence of BEC (-.smallcircle.-).

Series [9] deals with ovarian cancer cells. In words: Morphological examination of ovarian cancer cells (Papanicolaou). Format: cell-based, human. Conditions: 19.4-96.8 μM/L; FIG. 2A. The method, then:
Appropriate DMSO cytotoxicity studies were also conducted.
A human ovarian cancer cell line (C180-135) was grown as mono layers and trypsinized to form a cell suspension. The cells were adjusted to a concentration of 1×10^5 /ml (viability ≥95%) and 200 μl placed in each of the eight chambers of microscope chamber slides (Lab Tek, Miles Scientific). After 21 hours preincubation at 37.5° C., 50 μl of supplemented tissue culture media were added to the control chambers. To the other chambers were added 50 μl of solasodine glycosides (BEC) to give final concentrations of 3, 4.8, 6.7, 7.7, 9.6, 11.1 and 15.3 μM/L. Similarly, to a separate chamber slide was added the aglycone solasodine (19.4-96.8 μM/L). The slides were incubated at 37.5° C. for a further 3 hours, and the cells fixed in 95% V/V alcohol and stained by the Papanicolaou method. Two other chamber slides were prepared in a similar manner, but the solasodine glycosides and the aglycone were added at a final concentration of 0.77, 1.5, 2.3, 3.1 and 3.8 μM/L after 7 hours preincubation, and they incubated for a further 17 hours.

For series [10] the following is noted: 100 mg solasodine/kg; cited from earlier work.

Consider “rhamnosyl [4→3] Solasodine [Solaplumbin]”, for which, in the series with cancer, the “anticancer properties” value was “anticancer properties in rats”.
`C[C@H]1CC[C@]2(NC1)O[C@H]1C[C@H]3[C@@H]4CC=C5C[C@@H](O[C@@H]6O[C@H](CO)[C@@H](O[C@@H]7O[C@@H](C)[C@H](O)[C@@H](O)[C@H]7O)[C@H](O)[C@H]6O[C@@H]6O[C@@H](C)[C@H](O)[C@@H](O)[C@H]6O)CC[C@]5(C)[C@H]4CC[C@]3(C)[C@H]1[C@@H]2C` [B-solamarine]: the “tumour inhibition” value in the series with tumour is listed as “tumour inhibitor”.
As to `O=C(O)CCCc1ccc(N(CCCl)CCCl)cc1` [chlorambucil, reference compound], the CC50 in series [1] was 33 µM; in [2], 33 µM; in series [4], 22 µM; in series [7] it was 24.6 µM. In addition, the IC50 in the series with ovarian cancer cells [3] (read-out: LD50 (dose to inhibit 50% tritiated thymidine uptake), OvCa) came out at 60 µM; in the series on HeLa cells (read-out: LD50 (dose to inhibit 50% tritiated thymidine uptake), HeLa) it was 47.5 µM; in [6] (read-out: LD50 (dose to inhibit 50% tritiated thymidine uptake), LCL) it was 27 µM. Moreover, in [5] (normal versus cancer cells), the “cytotoxicity to normal cells relative to cancer cells” value was “equally or more cytotoxic to normal cells relative to cancer cells”. Further, the “TR50 (thymidine ratio relative to ovarian cancer cells)” value with HeLa cells (HeLa / OvCa) was found to be 0.79; in series [6] (LCL / OvCa), 0.45. The “LD50 (dose to inhibit 50% tritiated thymidine uptake)” value in the series on human fibroblasts is recorded as “NSE”.
Regarding `C[C@@H]1CC[C@@]2(NC1)O[C@H]1C[C@H]3[C@@H]4CC=C5C[C@@H](O)CC[C@]5(C)[C@H]4CC[C@]3(C)[C@H]1[C@@H]2C` [solasodine], the “cytotoxic effect of aglycone” value in the series with unstimulated lymphocytes is given as “substantial effect on unstimulated lymphocytes”; in [8] it was “does not exert a cytotoxic effect”; with ovarian cancer cells [3] (higher concentrations (FIG. 7)), “increase in cytotoxicity”; in series [5] (equivalent concentrations of solamargine (FIG. 6)), “does not exert a cytotoxic effect”. Further, the “effectiveness against S180” value with Sarcoma 180 is reported as “not effective”. For the same compound, in [5], the “lysosomotropic/mitochondrial inhibition” value was “lack of lysosomotropic/mitochondrial inhibition”. Besides, in the series with ovarian cancer cells [9], the “morphological effect on ovarian cancer cells” value is reported as “did not have any observable effect”. Further, the “deaths in mice” value in [10] is on record as “does not produce any deaths”.
